Experimental data reported in paper PMC12845261, “Design, Synthesis, and Biological Evaluation of N-Acyl-Hydrazone-Linked Quinazolinone Derivatives with Antioxidant, Antimicrobial, and Anticancer Potential” (Pharmaceuticals, 2025).
≈ marks a conversion by molar mass, not a printed value.

What was measured:
Assay type in all cases: cell-based
[1] = tested on: E. coli ATCC 25922; assay: Microbial adhesion, crystal violet (MICMA); settings: DMSO control 5
Procedure: (§1) For the evaluation of antimicrobial activity, the following reference strains were used: S. aureus ATCC 25923, E. faecalis ATCC 29212, E. coli ATCC 25922, P. aeruginosa ATCC 27853 and C. albicans ATCC 10231.
(§2) Following quantitative analysis of antimicrobial activity, microbial adhesion was evaluated after methanol fixation and violet crystal staining (0.1%). The absorbance of the adhered biomass colored with violet crystal and resuspended in 33% acetic acid was measured at 490 nm.

[2] = tested on: E. faecalis ATCC 29212; assay: Microbial adhesion, crystal violet (MICMA); settings: DMSO control 2.5
Procedure: as §1, §2

[3] = tested on: P. aeruginosa ATCC 27853; assay: Microbial adhesion, crystal violet (MICMA); settings: DMSO control 1.25
Procedure: as §1, §2

[4] = tested on: S. aureus ATCC 25923; assay: Microbial adhesion, crystal violet (MICMA); settings: DMSO control 5
Procedure: as §1, §2

[5] = tested on: C. albicans ATCC 10231; assay: Microbial adhesion, crystal violet (MICMA); settings: DMSO control 1.25
Procedure: as §1, §2

[6] = tested on: A431 (human epidermoid carcinoma); assay: Cytotoxicity, MTT assay
Procedure: (§3) For the cytotoxicity screening of the N-acyl-hydrazone derivatives, three cell lines were employed: HT-29 (human colorectal adenocarcinoma), A431 (human epidermoid carcinoma), and VERO (non-tumoral African green monkey kidney epithelial cells). All cell lines were obtained from the American Type Culture Collection (ATCC, Manassas, VA, USA), and maintained in appropriate culture media as follows: HT-29 and A431 cells were cultured in Dulbecco’s Modified Eagle Medium (DMEM), while VERO cells were cultured in Minimum Essential Medium (MEM). Both culture media were supplemented with 10% fetal bovine serum (FBS) and 1% penicillin-streptomycin mix, to formulate the complete culture medium. All cell lines were incubated at 37 °C in a humidified atmosphere containing 5% CO2. […] For the cytotoxicity screening, cells were seeded into sterile 96-well plates at an initial density of 1 × 10^4 cells/well and allowed to adhere for 24 h. Subsequently, cells were treated with increasing concentrations (3.125 to 50 µM) of compounds 1a–1f and 2 for 24 h. In parallel, 5-fluorouracil (5-FU, Sigma Aldrich, St. Louis, MO, USA) was included as a reference drug and tested over the same concentration range under identical experimental conditions. […] For the experimental control, culture medium was refreshed at the time of treatment application. […] Louis, MO, USA). Briefly, the culture media were discarded from each well and replaced with a fresh solution of MTT (1 mg/mL). Plates were incubated for 4 h at 37 °C, and the resulting formazan crystals were solubilized with isopropanol. The absorbance was measured at 550 nm using the FlexStation III multimodal reader (Molecular Devices, San Jose, CA, USA). All experiments were performed in triplicate and repeated in three independent assays. Cell viability was calculated as a percentage relative to the untreated control using the formula Cell Viability (%) = (Abs treated/Abs control) × 100. Data were processed using GraphPad Prism 6.0 and presented as mean ± standard deviation (SD). Statistical analysis was performed using one-way analysis of variance (ANOVA) followed by Dunnett’s post hoc test for comparison with the untreated control group.

[7] = tested on: HT-29 (human colorectal adenocarcinoma); assay: Cytotoxicity, MTT assay; settings: 24 h; for Cytotoxic effect (in words): 3.125 to 50 µM
Procedure: as §3

[8] = tested on: E. coli ATCC 25922; assay: Quantitative antimicrobial activity, serial binary microdilution (MIC, IC50); settings: for MIC: Escherichia coli, ATCC25922, E. coli ATCC 25922, 24 h, 37 °C, DMSO control 1.25
Procedure: as §1
(§4) Quantitative analysis was performed using the method of serial binary microdilutions in liquid medium (Tryptone Soy Broth for bacteria and Sabouraud Broth for yeasts) in plates with 96 wells. Stock solutions of 10 mg/mL were made in DMSO, and the range of concentrations tested for each compound was 5000–0.16 μg/mL. Simultaneously, the DMSO control was carried out under the same working conditions. Each well was inoculated with 10 μL of microbial suspension, adjusted to a density of 1.5 × 10^8 CFU/mL prepared from 18 to 24 h cultures. After 24 h of incubation at 37 °C, microbial growth and multiplication were evaluated both macroscopically and spectrophotometrically at 620 nm to establish the MIC values. […] Blanks were made for each sample concentration, and the formula was applied: Microbial viability(%)=Asample−Ablank/Astrain control−Asterility control·100

[9] = tested on: E. faecalis ATCC 29212; assay: as above; settings: 37 °C, DMSO control 2.5; for MIC: Enterococcus faecalis, ATCC29212, 24 h
Procedure: as §1, §4

[10] = tested on: P. aeruginosa ATCC 27853; assay: as above; settings: Pseudomonas aeruginosa, ATCC27853, 24 h, 37 °C, DMSO control 1.25
Procedure: as §1, §4

[11] = tested on: S. aureus ATCC 25923; assay: as above; settings: Staphylococcus aureus, ATCC25923; S. aureus ATCC 25923; 24 h, 37 °C; DMSO control 2.5
Procedure: as §1, §4

[12] = tested on: C. albicans ATCC 10231; assay: as above; settings: Candida albicans, ATCC10231, 24 h, 37 °C, DMSO control 1.25
Procedure: as §1, §4

[13] = tested on: E. faecalis ATCC 29212; assay: Microbicidal activity (MMC); settings: DMSO control >5
Procedure: (§5) For the evaluation of antimicrobial activity, the following reference strains were used: S. aureus ATCC 25923, E. faecalis ATCC 29212, E. coli ATCC 25922, P. aeruginosa ATCC 27853 and C. albicans ATCC 10231. To determine the MMCs, 5 μL of culture was taken from each well and distributed on solid medium. The plates were incubated for 20–24 h at 37 °C. The lowest concentration at which no microbial growth was observed was considered MMC.

[14] = tested on: P. aeruginosa ATCC 27853; assay: Microbicidal activity (MMC); settings: DMSO control 2.5
Procedure: as §5

[15] = tested on: S. aureus ATCC 25923; assay: Microbicidal activity (MMC); settings: DMSO control 5
Procedure: as §5

[16] = tested on: C. albicans ATCC 10231; assay: Microbicidal activity (MMC); settings: DMSO control 5
Procedure: as §5

| Compound | MICMA [1] | MICMA [2] | MICMA [3] | MICMA [4] | MICMA [5] | Cytotoxic effect (in words) [7] | MIC [8] | MIC [9] | MIC [10] | MIC [11] | MIC [12] | MMC [13] | MMC [14] | MMC [15] | MMC [16] | other results |
| --- | --- | --- | --- | --- | --- | --- | --- | --- | --- | --- | --- | --- | --- | --- | --- | --- |
| COc1cccc(/C=N/NC(=O)Cn2c(C)nc3ccccc3c2=O)c1O [Compound 1c, N′-[(E)-(2-hydroxy-3-methoxyphenyl)methylidene]-2-(2-methyl-4-oxoquinazolin-3(4H)-yl)acetohydrazide] | 2.5 mg/mL | 2.5 mg/mL | 1.25 mg/mL | 2.5 mg/mL | 0.625 mg/mL | potent inhibitory effects at all concentrations tested | 1250 µg/mL (≈ 3.41 mM) | 2500 µg/mL (≈ 6.82 mM) | 1250 µg/mL (≈ 3.41 mM) | 2500 µg/mL (≈ 6.82 mM) | 2500 µg/mL (≈ 6.82 mM) | >5 mg/mL | 2.5 mg/mL | 5 mg/mL | 5 mg/mL | viability at 50 µM ([6]; Homo sapiens, A-431, 50 µM, 24 h, compared to the control, read-out: Cell viability): ~50%; IC50 ([6]; Homo sapiens, A-431, 24 h, tested range 3.125 to 50 µM): ~50 µM; IC50 ([7]; tested range 3.125 to 50 µM): did not produce a viability drop sufficient to determine an IC50 value; IC50 (antimicrobial activity) compared with solvent control ([8]; E. coli, versus DMSO, p < 0.05): significantly lower IC50 values than the solvent control |
| COc1cc(/C=N/NC(=O)Cn2c(C)nc3ccccc3c2=O)cc([N+](=O)[O-])c1O [Compound 1f, N′-[(E)-(4-hydroxy-3-methoxy-5-nitrophenyl)methylidene]-2-(2-methyl-4-oxoquinazolin-3(4H)-yl)acetohydrazide] | 2.5 mg/mL | 2.5 mg/mL | 1.25 mg/mL | 2.5 mg/mL | 1.25 mg/mL | no inhibitory effect | 1250 µg/mL (≈ 3.04 mM) | 1250 µg/mL (≈ 3.04 mM) | 1250 µg/mL (≈ 3.04 mM) | 2500 µg/mL (≈ 6.08 mM) | 1250 µg/mL (≈ 3.04 mM) | >5 mg/mL | 2.5 mg/mL | 5 mg/mL | 5 mg/mL | Cytotoxic effect (in words) ([6]; 3.125 to 50 µM, 24 h): did not exert any inhibitory effect; MIC (mg/mL) ([9]; 24 h): specifically active |
